Patent EP4741392A1, “1H-PYRAZOLO[4,3-C]PYRIDINE COMPOUND, AND COMPOSITION THEREOF AND USE THEREOF” (Shenzhen TargetRx Co., Ltd., priority 2023, dated 2025)
Read-outs that look alike come from different tables or passages of the source.

Tests used:
BTK C481S = molecular target: T1, BTK C481S (Homo sapiens, UniProt Q06187, C481S); test: Kinase activity inhibition assay (HTRF TK Kit); assay type: biochemical
T1 construct: purchased Carna 08-547
Description: (§1) In this assay, the HTRF TK Kit (Catalog No. 62TK0PEC) provided by Cisbio was used to detect the inhibitory activity of compounds on BTK kinase, BTK T474I kinase and BTK C481 S kinase and the selectivity of compounds relative to EGFR, ITK and TEC kinases.
(§2) Reagents and consumables: BTK kinase (Invitrogen, Catalog No. PV3587), BTK C481S (Carna, Product No. 08-547), BTK T474I(SignalChem Product No. B10-12HH), ITK (Cama, Product No. 08-181), EGFR (Cama, Product No. 08-115), TEC (Carna, Product No. 08-182), HTRF-TK kit (Cisbio, Product No. 62TK0PEC), MgCl2 (Sigma, Product No. M1028), MnCl2 (Sigma, Product No. M1787), DTT (Sigma, Product No. D0632), ATP (Sigma, Product No. A7699-1g), DMSO (Sigma, Product No. D2650), 384-well plate (PE, Product No. 6008280).
(§3) The entire operation steps were carried out on ice, and the total reaction volume was 10µL. A compound (4µL), substrate and ATP (4µL), and kinase (2µL) were added in sequence to a 384-well plate, and the plate was shaken for 30 seconds. The mixture was reacted at room temperature for an appropriate time, and then the detection reagent was added. The resulting mixture was reacted at room temperature for 1 hour, and then the plate was assayed with a microplate reader. The specific steps were as follows: • a) a 1 × kinase buffer solution required for the kinase assay was calculated according to the amount of the test compound, and prepared as needed; • b) 2.5 × working concentration of a compound was prepared, 100-fold gradient concentration solutions of a compound were diluted by 40 × to the desired concentration, respectively, mixed well, and added to each well at 4 µL per well; • c) 5 × working concentration of the substrate and ATP were prepared, mixed in a ratio of 1:1 before being added to the 384-well plate, and added to each well at 4 µL per well; • d) 5 × working concentration of a kinase was prepared, 2 µL of which was added to each well; • e) the plate was shaken on a microplate shaker for 30 seconds, sealed with a sealing membrane, and the mixture was reacted at room temperature for an appropriate time; • f) 4 × working concentration of streptavidin XL-665 and TK antibody-cryptate compound were prepared, mixed in a ratio of 1:1 before being added to the 384-well plate, and added to each well at 10 µL per well; • g) the mixture was reacted at room temperature for 1 hour, and then the plate was read; • h) the wells with only substrate, ATP and 1% DMSO added but no kinase were blank control wells, and the wells with only substrate, ATP, 1% DMSO and kinase were positive control wells.
(§4) Readings: The values of 620 nm (cryptate) and 665 nm (XL665) were read with a BioTek Synerg Neo2 microplate reader, the ratio of 665/620 for each well was calculated, and the data were exported.
(§5) Data analysis: IC50 was calculated using GraphPad Prism 7.0 software.
(§6) The IC50 (half-maximal inhibitory concentration) of the compound was obtained using the following nonlinear fitting formula: Y = Bottom + (Top−Bottom)/(1+10^(∧)((LogIC50−X)*HillSlope)) [formula] • X: Log value of the compound concentration • Y: Inhibition rate (% inhibition) • Top: Maximum response • Bottom: Baseline response • HillSlope: Slope of the curve
(§7) The formula for calculating kinase inhibition rate (inhibition rate %) was: [formula]

BTK T474I = molecular target: T2, BTK T474I (Homo sapiens, UniProt Q06187, T474I); test: Kinase activity inhibition assay (HTRF TK Kit); assay type: biochemical
T2 construct: purchased SignalChem B10-12HH
T2 sequence (Q06187 whole entry T474I): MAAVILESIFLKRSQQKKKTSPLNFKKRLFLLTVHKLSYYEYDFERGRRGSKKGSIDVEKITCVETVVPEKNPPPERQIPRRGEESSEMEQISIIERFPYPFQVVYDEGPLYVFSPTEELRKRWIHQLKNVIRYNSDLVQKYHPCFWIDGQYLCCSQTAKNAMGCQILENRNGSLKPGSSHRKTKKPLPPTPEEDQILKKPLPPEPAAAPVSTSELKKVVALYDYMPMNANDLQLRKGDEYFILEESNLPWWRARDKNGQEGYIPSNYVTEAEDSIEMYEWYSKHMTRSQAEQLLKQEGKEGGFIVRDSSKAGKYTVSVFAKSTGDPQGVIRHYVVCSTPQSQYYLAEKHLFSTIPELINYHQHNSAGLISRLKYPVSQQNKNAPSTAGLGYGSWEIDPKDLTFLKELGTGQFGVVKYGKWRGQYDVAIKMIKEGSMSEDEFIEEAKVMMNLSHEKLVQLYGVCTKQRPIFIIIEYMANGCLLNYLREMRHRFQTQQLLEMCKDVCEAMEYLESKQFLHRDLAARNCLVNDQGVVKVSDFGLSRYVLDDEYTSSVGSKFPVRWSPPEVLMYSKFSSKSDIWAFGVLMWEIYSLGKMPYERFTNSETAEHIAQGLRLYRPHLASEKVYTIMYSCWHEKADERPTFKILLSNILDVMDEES
Description: as §1, §2, §3, §4, §5, §6, §7

BTK kinase = molecular target: T3, BTK kinase (Homo sapiens, UniProt Q06187); test: Kinase activity inhibition assay (HTRF TK Kit); assay type: biochemical
T3 construct: purchased Invitrogen PV3587
T3 sequence (Q06187 whole entry): as the sequence (Q06187 whole entry T474I) above, with I474T counted along it
Description: as §1, §2, §3, §4, §5, §6, §7

NIH/3T3 BTK C481S cells = test: Phosphor-BTK(Y223) assay, adherent cells; assay type: cell-based; conditions: read-out: NIH/3T3 BTK-C481S pBTK
Method: (§8) The purpose of this assay was to simply, quickly and directly detect the level of endogenous BTK phosphorylation in cells.
(§9) The steps for handling adherent cells were as follows: • 1) NIH/3T3 BTK WT cells (7.5 k/well) and NIH/3T3 BTK C481S cells (10 k/well) were plated in a 96-well plate, respectively, and cultured at 37 °C and 5% CO2 overnight. • 2) A 3-fold final concentration gradient dilution of a compound was prepared, and 50 µL of it was taken and added to 100 µL of cell culture. 0.5% DMSO was used as a positive control for cell growth. • 3) The plate was incubated at 37 °C and 5% CO2 for 0.5 h. • 4) Na3VO4 at a final concentration of 1mM was added, and the plate was incubated at 37 °C and 5% CO2 for 2 hours. • 5) During the incubation, the following reagents were prepared: • 1x added lysis buffer: 3 vol ddH2O + 1 vol 4x lysis buffer + 100x blocking reagent. • p-BTK (Y223) cryptate-antibody and p-BTK (Y223) d2-antibody working solutions: 1 volume of each cryopreserved antibody (stored at - 20 °C) was added to 19 times the volume of assay buffer (stored at 4 °C). • 6) After the incubation was completed, the medium was removed and 50 µL of 1x added lysis buffer was added. The plate was centrifuged at 500 rpm at room temperature for 30 min. • 7) The lysate was mixed well and 16 µL of it was transferred to a 384-well plate. 1 × added lysis buffer was used as a blank control. • 8) 4 µL of pre-mixed working solutions of the two antibodies (cryptate Ab:d2 Ab = 1:1) was added, and the plate was sealed. • 9) The plate was incubated at room temperature overnight. 10) The plate was read at 665nm and 620nm using Biotek cytation3.0 microplate reader, and the ratio of 665/620nm of each well was calculated.
as §6, with “(half-maximal phosphorylation” for “(half-maximal”, “concentration) of the phosphorylated BTK Y223” for “concentration)”
(§10) The formula for calculating cell phosphorylation inhibition rate (inhibition rate %) was: Inhibition rate% = 1−(eachconcentrationwell-blankwell)/(positivecontrolwell−blankwell) [formula]

NIH/3T3 BTK WT cells = test: Phosphor-BTK(Y223) assay, adherent cells; assay type: cell-based; conditions: read-out: NIH/3T3 BTK-WT pBTK
Method: as §8, §9
as §6, with “(half-maximal phosphorylation” for “(half-maximal”, “concentration) of the phosphorylated BTK Y223” for “concentration)”
as §10

[1] = Mus musculus, NIH3T3, phosphorylated BTK Y223, NIH/3T3 BTK C481S cells
[2] = Mus musculus, NIH3T3, phosphorylated BTK Y223, NIH/3T3 BTK WT cells

T1 sequence (Q06187 whole entry C481S): as the sequence (Q06187 whole entry T474I) above, with I474T, C481S counted along it

Row | SMILES | IC50 (BTK C481S) [nM] | IC50 (BTK T474I) [nM] | IC50 (BTK kinase) [nM] | IC50 (NIH/3T3 BTK C481S cells; [1]) [nM] | IC50 (NIH/3T3 BTK WT cells; [2]) [nM] | IC50 (NIH/3T3 BTK C481S cells; phosphorylated BTK Y223, NIH/3T3 BTK C481S cells) [nM] | IC50 (NIH/3T3 BTK WT cells; phosphorylated BTK Y223, NIH/3T3 BTK WT cells) [nM]
1 | COc1ccc(F)cc1C(=O)NCc1ccc(-c2ncc(-c3ccc(OC(F)(F)F)cn3)c3[nH]nc(N)c23)cc1 [Example 41, N-(4-(3-amino-7-(5-(trifluoromethoxy)pyridin-2-yl)-1H-pyrazolo[4,3-c]pyridin-4-yl)benzyl)-5-fluoro-2-methoxybenzamide] | ≤ 1 | 5 to 50 | 1 to 5 | 5 to 10 | ≤ 5 | – | –
2 | COc1ccc(F)cc1C(=O)NCc1ccc(-c2nc(C(C)C(F)(F)F)c(-c3ncccn3)c3[nH]nc(N)c23)cc1 (stereo not drawn) [Example 7, N-(4-(3-amino-7-(pyrimidin-2-yl)-6-(1,1,1-trifluoropropan-2-yl)-1H-pyrazolo[4,3-c]pyridin-4-yl)benzyl)-5-fluoro-2-methoxybenzamide] | 1 to 5 | 50 to 500 | 1 to 5 | 5 to 10 | ≤ 5 | – | –
3 | COc1ccc(F)cc1C(=O)NCc1ccc(-c2nc(C3CCSCC3)cc3[nH]nc(N)c23)cc1 [Example 91, N-(4-(3-amino-6-(tetrahydro-2H-thiopyran-4-yl)-1H-pyrazolo[4,3-c]pyridin-4-yl)benzyl)-5-fluoro-2-methoxybenzamide] | 1 to 5 | 50 to 500 | 1 to 5 | 5 to 10 | ≤ 5 | – | –
4 | COc1ccc(F)cc1C(=O)NCc1ccc(-c2ncc(-c3ccc(CN4CCN(C)CC4)cn3)c3[nH]nc(N)c23)cc1 [Example 68, N-(4-(3-amino-7-(5-((4-methylpiperazin-1-yl)methyl)pyridin-2-yl)-1H-pyrazolo[4,3-c]pyridin-4-yl)benzyl)-5-fluoro-2-methoxybenzamide] | 1 to 5 | 5 to 50 | 1 to 5 | ≤ 5 | ≤ 5 | – | –
5 | COc1ccc(F)cc1C(=O)NCc1ccc(-c2nc(C(C)C(F)(F)F)c(-c3ccn(C)n3)c3[nH]nc(N)c23)cc1 (single isomer, unassigned) [Example 6-1, N-(4-(3-amino-7-(1-methyl-1H-pyrazol-3-yl)-6-(1,1,1-trifluoropropan-2-yl)-1H-pyrazolo[4,3-c]pyridin-4-yl)benzyl)-5-fluoro-2-methoxybenzamide] | 1 to 5 | 5 to 50 | 1 to 5 | 10 to 50 | ≤ 5 | – | –
6 | COc1ccc(F)cc1C(=O)NCc1ccc(-c2nc([C@H]3CC[C@H](CO)CC3)cc3[nH]nc(N)c23)cc1 [Example 117, N-(4-(3-amino-6-((1r,4r)-4-(hydroxymethyl)cyclohexyl)-1H-pyrazolo[4,3-c]pyridin-4-yl)benzyl)-5-fluoro-2-methoxybenzamide] | 1 to 5 | 50 to 500 | 1 to 5 | 10 to 50 | 10 to 50 | – | –
7 | COc1ccc(F)cc1C(=O)NCc1ccc(-c2ncc(-c3nc4cccnc4s3)c3[nH]nc(N)c23)cc1 [Example 100, N-(4-(3-amino-7-(thiazolo[5,4-b]pyridin-2-yl)-1H-pyrazolo[4,3-c]pyridin-4-yl)benzyl)-5-fluoro-2-methoxybenzamide] | 1 to 5 | 50 to 500 | 1 to 5 | 5 to 10 | ≤ 5 | – | –
8 | CNC(=O)Cn1ccc(-c2cnc(-c3ccc(CNC(=O)c4cc(F)ccc4OC)cc3)c3c(N)n[nH]c23)n1 [Example 26, N-(4-(3-amino-7-(1-(2-(methylamino)-2-oxoethyl)-1H-pyrazol-3-yl)-1H-pyrazolo[4,3-c]pyridin-4-yl)benzyl)-5-fluoro-2-methoxybenzamide] | 1 to 5 | 50 to 500 | 1 to 5 | 10 to 50 | 10 to 50 | – | –
9 | COc1ccc(F)cc1C(=O)NCc1ccc(-c2nc(C(C)C(F)(F)F)c(-c3ncccn3)c3[nH]nc(N)c23)cc1 (single isomer, unassigned) [Example 7-2, N-(4-(3-amino-7-(pyrimidin-2-yl)-6-(1,1,1-trifluoropropan-2-yl)-1H-pyrazolo[4,3-c]pyridin-4-yl)benzyl)-5-fluoro-2-methoxybenzamide] | 1 to 5 | 50 to 500 | 1 to 5 | – | – | 5 to 10 | ≤ 5
10 | COc1ccc(F)cc1C(=O)NCc1ccc(-c2ncc(-c3ccncc3)c3[nH]nc(N)c23)cc1 [Example 106, N-(4-(3-amino-7-(pyridin-4-yl)-1H-pyrazolo[4,3-c]pyridin-4-yl)benzyl)-5-fluoro-2-methoxybenzamide] | 50 to 500 | > 500 | 50 to 500 | > 50 | > 50 | – | –
11 | COc1ccc(F)cc1C(=O)NCc1ccc(-c2ncc(-c3ccc4nccn4n3)c3[nH]nc(N)c23)cc1 [Example 51, N-(4-(3-amino-7-(imidazo[1,2-b]pyridazin-6-yl)-1H-pyrazolo[4,3-c]pyridin-4-yl)benzyl)-5-fluoro-2-methoxybenzamide] | ≤ 1 | 50 to 500 | 1 to 5 | 5 to 10 | ≤ 5 | – | –
12 | COc1ccc(F)cc1C(=O)NCc1ccc(-c2ncc(-c3nc4cnccn4n3)c3[nH]nc(N)c23)cc1 [Example 57, N-(4-(7-([1,2,4]triazolo[1,5-a]pyrazin-2-yl)-3-amino-1H-pyrazolo[4,3-c]pyridin-4-yl)benzyl)-5-fluoro-2-methoxybenzamide] | ≤ 1 | 50 to 500 | 1 to 5 | 5 to 10 | ≤ 5 | – | –
